These results are taken from article PMC3265452 (PLoS Neglected Tropical Diseases, 2012).

Where a name gives a salt, the structure may show the parent alone.

In the first test the target is AaDOP2 (Aedes aegypti, UniProt H6D5H2). The test can be described thus: AaDOP2 antagonist screen of the LOPAC1280 library (HEK-CRELuc-Aadop2 cells, luminescence).
Chain of AaDOP2 (H6D5H2 1-476): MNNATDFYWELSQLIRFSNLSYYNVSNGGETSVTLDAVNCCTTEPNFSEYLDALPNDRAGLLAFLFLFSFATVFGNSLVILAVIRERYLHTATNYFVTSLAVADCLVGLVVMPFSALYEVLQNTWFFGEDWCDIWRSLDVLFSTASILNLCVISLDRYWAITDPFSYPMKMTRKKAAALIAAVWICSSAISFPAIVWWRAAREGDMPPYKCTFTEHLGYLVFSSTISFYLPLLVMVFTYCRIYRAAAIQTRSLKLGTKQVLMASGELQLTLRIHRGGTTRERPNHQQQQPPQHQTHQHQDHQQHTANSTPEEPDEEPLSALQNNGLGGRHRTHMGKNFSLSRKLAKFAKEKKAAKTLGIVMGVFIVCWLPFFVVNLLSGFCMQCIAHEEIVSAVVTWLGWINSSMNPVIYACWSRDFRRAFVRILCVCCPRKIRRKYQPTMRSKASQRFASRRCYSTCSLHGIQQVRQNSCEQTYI
Settings: not given
The format is cell-based.
Take `CC(C)[C@@]1(NC(=O)[C@@H]2C=C3c4cccc5[nH]cc(c45)C[C@H]3N(C)C2)O[C@@]2(O)[C@@H]3CCCN3C(=O)[C@H](Cc3ccccc3)N2C1=O` [Compound 508, Ergocristine]: the “Compound effect (percent receptor signaling in presence of test compound, relative lux units relative to the SCH23390 control)” value amounted to 100. As to `NC(=O)OCC(COC(N)=O)c1ccccc1` [Compound 509, Felbamate], the “Compound effect (percent receptor signaling in presence of test compound, relative lux units relative to the SCH23390 control)” value worked out at 113. On the same count and under the same terms, with `CC(Cc1ccc(O)cc1)NCC(O)c1cc(O)cc(O)c1` (stereo not drawn) [Compound 511, Fenoterol hydrobromide] the figure was 136. On the same count and under the same terms, with `CNCC[C@H](Oc1ccc(C(F)(F)F)cc1)c1ccccc1.Cl` [Compound 512, S-(+)-Fluoxetine hydrochloride] the figure was 77; with `CNCC[C@@H](Oc1ccc(C(F)(F)F)cc1)c1ccccc1.Cl` [Compound 513, R-(-)-Fluoxetine hydrochloride], 79. Turning to `COCCCC/C(=N\OCCN)c1ccc(C(F)(F)F)cc1` [Compound 514, Fluvoxamine maleate], the “Compound effect (percent receptor signaling in presence of test compound, relative lux units relative to the SCH23390 control)” value is 114. On the same count and under the same terms, the figure for `COc1ccc2c(c1)c(CC(=O)O)c(C)n2Cc1ccc(F)cc1` [Compound 515, 1-(4-Fluorobenzyl)-5-methoxy-2-methylindole-3-acetic acid] is 103; for `COc1cccc2c1[C@@H]1CN(CCCCn3c(=O)[nH]c4c(sc5ncc(-c6ccccc6)nc54)c3=O)C[C@@H]1CO2` [Compound 517, Fiduxosin hydrochloride] it is 69; for `NS(=O)(=O)c1cc(C(=O)O)c(NCc2ccco2)cc1Cl` [Compound 518, Furosemide] it is 129.

With `CC(C)OC(=O)C(C)(C)Oc1ccc(C(=O)c2ccc(Cl)cc2)cc1` [Compound 521, Fenofibrate], the “Compound effect (percent receptor signaling in presence of test compound, relative lux units relative to the SCH23390 control)” value is 95. Consider `O=C1NCC2(CCN(CCc3ccccc3)CC2)O1` [Compound 522, Fenspiride hydrochloride], for which the “Compound effect (percent receptor signaling in presence of test compound, relative lux units relative to the SCH23390 control)” value is recorded as 98. The same measure, in the same setting: with `CCOC(=O)c1ncn2c1CN(C)C(=O)c1cc(F)ccc1-2` [Compound 523, Flumazenil] the figure was 124.

Take `CCCCc1ccc(C(=O)O)nc1` [Compound 525, Fusaric acid]: the “Compound effect (percent receptor signaling in presence of test compound, relative lux units relative to the SCH23390 control)” value came to 152. On the same count and under the same terms, with `O=c1[nH]cc(F)c(=O)[nH]1` [Compound 526, 5-Fluorouracil] the figure was 156.

For the compound `O=C(NCC1CCCCN1)c1cc(OCC(F)(F)F)ccc1OCC(F)(F)F` (stereo not drawn) [Compound 527, Flecainide acetate], the “Compound effect (percent receptor signaling in presence of test compound, relative lux units relative to the SCH23390 control)” value came to 111. As for `Oc1ccc(C2CNCCc3c2cc(O)c(O)c3Cl)cc1` (stereo not drawn) [Compound 528, Fenoldopam bromide], the “Compound effect (percent receptor signaling in presence of test compound, relative lux units relative to the SCH23390 control)” value is given as 112. As to `C=C[C@@]1(C)CC(=O)[C@]2(O)[C@@]3(C)[C@@H](O)CCC(C)(C)[C@@H]3[C@H](O)[C@H](OC(C)=O)[C@@]2(C)O1` [Compound 529, Forskolin], the “Compound effect (percent receptor signaling in presence of test compound, relative lux units relative to the SCH23390 control)” value is 46. Same read-out and setting: the figure for `NC(N)=Nc1nc(CSCCC(N)=NS(N)(=O)=O)cs1` [Compound 530, Famotidine] is 115.

As for `Fc1ccc(C(c2ccc(F)cc2)N2CCN(C/C=C/c3ccccc3)CC2)cc1` [Compound 533, Flunarizine dihydrochloride], the “Compound effect (percent receptor signaling in presence of test compound, relative lux units relative to the SCH23390 control)” value turned out to be 71. Still for that read-out and setting: the figure for `C[C@H]1O[C@@H](n2cc(F)c(=O)[nH]c2=O)[C@H](O)[C@@H]1O` [Compound 534, 5-fluoro-5'-deoxyuridine] is 111; for `CC(C)C(=O)Nc1ccc([N+](=O)[O-])c(C(F)(F)F)c1` [Compound 536, Flutamide] it is 99.

With `CC(C)(C(=O)O)c1ccc(C(O)CCCN2CCC(C(O)(c3ccccc3)c3ccccc3)CC2)cc1` (stereo not drawn) [Compound 537, Fexofenadine hydrochloride], the “Compound effect (percent receptor signaling in presence of test compound, relative lux units relative to the SCH23390 control)” value is 87. On to `CCOC(=O)C1=C(C)NC(C)=C(C(=O)OC)C1c1cccc(Cl)c1Cl` (stereo not drawn) [Compound 539, Felodipine], for which the “Compound effect (percent receptor signaling in presence of test compound, relative lux units relative to the SCH23390 control)” value was 96.

In the case of `O=C1NCN(c2ccccc2)C12CCN(CCCC(c1ccc(F)cc1)c1ccc(F)cc1)CC2` [Compound 540, Fluspirilene], the “Compound effect (percent receptor signaling in presence of test compound, relative lux units relative to the SCH23390 control)” value is recorded as 53. Same read-out and setting: with `Cc1nc2c([nH]1)c(=O)n(C)c(=O)n2Cc1ccco1` [Compound 542, Furafylline] the figure was 120; with `COC(=O)c1c(C)[nH]c(C)c1C(=O)c1ccccc1Cc1ccccc1` [Compound 543, FPL 64176], 86; with `CNCCC(Oc1ccc(C(F)(F)F)cc1)c1ccccc1` (stereo not drawn) [Compound 544, Fluoxetine hydrochloride], 118.

Take `NCC(=O)NCCC(c1ccccc1)c1ccccc1` [Compound 545, N-(3,3-Diphenylpropyl)glycinamide]: the “Compound effect (percent receptor signaling in presence of test compound, relative lux units relative to the SCH23390 control)” value was found to be 105. Still for that read-out and setting: with `COc1ccc(Cl)cc1C(=O)NCCc1ccc(S(=O)(=O)NC(=O)NC2CCCCC2)cc1` [Compound 546, Glibenclamide] the figure was 118; with `CN(C)c1cc2c(Nc3ccc4c(cnn4Cc4ccccc4)c3)ncnc2cn1` [Compound 547, GW2974], 68; with `N=C(N)NC(=O)Cc1c(Cl)cccc1Cl` [Compound 548, Guanfacine hydrochloride], 112. Turning to `Nc1nc(O)c2ncn(COC(CO)CO)c2n1` [Compound 550, Ganciclovir], the “Compound effect (percent receptor signaling in presence of test compound, relative lux units relative to the SCH23390 control)” value was found to be 92.

Turning to `NC(=O)CC[C@H](N)C(=O)O` [Compound 551, L-Glutamine], the “Compound effect (percent receptor signaling in presence of test compound, relative lux units relative to the SCH23390 control)” value amounted to 115. As for `NC(N)=Nc1ccc2[nH]c3c(c2c1)C[C@@]1(O)[C@H]2Cc4ccc(O)c5c4[C@@]1(CCN2CC1CC1)[C@H]3O5.O=C(O)C(F)(F)F.O=C(O)C(F)(F)F` [Compound 552, Guanidinyl-naltrindole di-trifluoroacetate], the “Compound effect (percent receptor signaling in presence of test compound, relative lux units relative to the SCH23390 control)” value amounted to 120. As to `CN(CCOc1ccc(C[C@H](Nc2ccccc2C(=O)c2ccccc2)C(=O)O)cc1)c1ccccn1` [Compound 554, GW1929], the “Compound effect (percent receptor signaling in presence of test compound, relative lux units relative to the SCH23390 control)” value was determined as 131. Same read-out and setting: the figure for `O=C1Nc2ccc(I)cc2/C1=C/c1cc(Br)c(O)c(Br)c1` [Compound 555, GW5074] is 25; for `O=c1c(-c2ccc(O)cc2)coc2cc(O)cc(O)c12` [Compound 556, Genistein] it is 67; for `CC(C)(Sc1ccc(CCN(CCCCC2CCCCC2)C(=O)NC2CCCCC2)cc1)C(=O)O` [Compound 557, GW7647] it is 50. On to `CC[N+](CC)(CC)CCOc1cccc(OCC[N+](CC)(CC)CC)c1OCC[N+](CC)(CC)CC` [Compound 559, Gallamine triethiodide], for which the “Compound effect (percent receptor signaling in presence of test compound, relative lux units relative to the SCH23390 control)” value was determined as 120.

The test is the same for the next values; noted with them: 10 µM compound, 300 nM dopamine, 2 hr; hit = compound effect <20.
`CC(=O)O[C@H]1C[C@@]2(C)[C@@H](C[C@@H](O)[C@H]3[C@@]4(C)CC[C@@H](O)[C@@H](C)[C@@H]4CC[C@@]32C)/C1=C(\CCC=C(C)C)C(=O)[O-].[Na+]` [Compound 510, Fusidic acid sodium]: the “Compound effect (percent receptor signaling in presence of test compound, relative lux units relative to the SCH23390 control)” value is 131%. The same measure, in the same setting: with `O=C([O-])c1cc2cc(Cc3cccnc3)ccc2o1.[Na+]` [Compound 516, Furegrelate sodium] the figure was 146%; with `N[C@@H](Cc1ccc(F)cc1)C(=O)O` [Compound 519, p-Fluoro-L-phenylalanine], 97%.

`COc1cc(=O)n(C)c2c(OCC(O)C(C)(C)O)cccc12` (stereo not drawn) [Compound 524, Foliosidine]: the “Compound effect (percent receptor signaling in presence of test compound, relative lux units relative to the SCH23390 control)” value was found to be 190%.

Take `CCCn1c(=O)c2[nH]c(C3CCCC3)nc2n(CCCOC(=O)c2ccc(S(=O)(=O)F)cc2)c1=O` [Compound 531, FSCPX]: the “Compound effect (percent receptor signaling in presence of test compound, relative lux units relative to the SCH23390 control)” value was 97%. Still for that read-out and setting: with `CC(C)=CCC/C(C)=C/CC/C(C)=C/CSc1ccccc1C(=O)O` [Compound 532, Farnesylthiosalicylic acid] the figure was 120%; with `Cl.N[C@@H](CCC(=O)O)C(=O)O` [Compound 549, L-Glutamic acid hydrochloride], 93%; with `Br.Br.N=C(N)NCCSSCCNC(=N)N` [Compound 553, Guanidinoethyl disulfide dihydrobromide], 105%. The same measure, in the same setting: the figure for `N=C(N)NC(CCC(=O)O)C(=O)O` (stereo not drawn) [Compound 558, alpha-Guanidinoglutaric acid] is 121%.
